Data taken from patent US20240368169A1 (priority 2021, published 2024).

Columns and labels:
[1] = biological target: recombinant poly(ADP-ribose) polymerase 2 (PARP2) (Homo sapiens, UniProt Q9UGN5); test: biochemical; details: inhibition of PARP2 enzyme activity, chemiluminescence
[2] = biological target: recombinant poly(ADP-ribose) polymerase 1 (PARP1) (Homo sapiens, UniProt P09874); test: biochemical; details: inhibition of PARP1 enzyme activity, chemiluminescence
MDA-MB-436 cells = test: Growth inhibition assay against BRCA mutant human breast cancer MDA-MB-436 cell line (CCK-8, 7 days); type: cell-based

recombinant poly(ADP-ribose) polymerase 1 (PARP1), sequence (P09874 whole entry): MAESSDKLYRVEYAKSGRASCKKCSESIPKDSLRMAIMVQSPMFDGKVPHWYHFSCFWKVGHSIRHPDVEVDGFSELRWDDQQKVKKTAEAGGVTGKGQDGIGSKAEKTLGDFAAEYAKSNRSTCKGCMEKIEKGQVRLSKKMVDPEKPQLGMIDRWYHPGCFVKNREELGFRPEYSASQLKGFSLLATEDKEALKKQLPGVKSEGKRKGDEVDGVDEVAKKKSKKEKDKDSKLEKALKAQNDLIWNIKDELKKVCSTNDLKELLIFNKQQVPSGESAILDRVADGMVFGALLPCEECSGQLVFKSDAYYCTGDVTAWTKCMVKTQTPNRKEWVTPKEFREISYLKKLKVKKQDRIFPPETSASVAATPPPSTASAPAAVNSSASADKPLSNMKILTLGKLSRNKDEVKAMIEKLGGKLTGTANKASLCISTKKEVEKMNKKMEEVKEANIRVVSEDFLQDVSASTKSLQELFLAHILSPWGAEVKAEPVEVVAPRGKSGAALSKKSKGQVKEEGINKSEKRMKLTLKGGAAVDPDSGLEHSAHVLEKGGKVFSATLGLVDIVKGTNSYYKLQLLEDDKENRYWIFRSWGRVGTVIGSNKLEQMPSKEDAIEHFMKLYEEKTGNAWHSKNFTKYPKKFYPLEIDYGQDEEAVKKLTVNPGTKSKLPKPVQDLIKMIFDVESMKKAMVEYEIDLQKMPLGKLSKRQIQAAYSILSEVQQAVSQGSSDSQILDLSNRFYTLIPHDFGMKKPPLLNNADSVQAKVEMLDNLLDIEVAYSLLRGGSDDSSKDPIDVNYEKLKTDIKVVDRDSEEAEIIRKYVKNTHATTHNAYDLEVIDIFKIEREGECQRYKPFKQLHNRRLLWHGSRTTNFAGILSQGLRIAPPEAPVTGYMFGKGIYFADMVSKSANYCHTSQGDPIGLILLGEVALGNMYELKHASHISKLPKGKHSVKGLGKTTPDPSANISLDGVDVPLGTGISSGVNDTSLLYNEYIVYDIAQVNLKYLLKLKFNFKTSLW
recombinant poly(ADP-ribose) polymerase 2 (PARP2), sequence (Q9UGN5 whole entry): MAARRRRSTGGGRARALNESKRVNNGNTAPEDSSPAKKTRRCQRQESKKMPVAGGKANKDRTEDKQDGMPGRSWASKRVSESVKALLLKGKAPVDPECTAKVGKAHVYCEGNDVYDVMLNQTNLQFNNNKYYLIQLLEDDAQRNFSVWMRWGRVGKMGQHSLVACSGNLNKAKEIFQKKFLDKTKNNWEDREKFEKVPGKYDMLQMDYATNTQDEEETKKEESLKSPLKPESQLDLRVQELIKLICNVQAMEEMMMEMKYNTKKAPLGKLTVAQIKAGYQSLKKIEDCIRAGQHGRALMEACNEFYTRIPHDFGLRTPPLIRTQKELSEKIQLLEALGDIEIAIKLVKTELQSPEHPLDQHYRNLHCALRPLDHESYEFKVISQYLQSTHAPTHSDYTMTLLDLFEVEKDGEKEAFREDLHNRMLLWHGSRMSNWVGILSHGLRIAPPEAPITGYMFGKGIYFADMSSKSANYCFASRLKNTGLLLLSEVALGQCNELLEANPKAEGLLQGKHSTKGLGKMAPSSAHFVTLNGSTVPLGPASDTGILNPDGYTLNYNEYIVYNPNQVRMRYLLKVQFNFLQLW

SMILES: CNC(=O)c1ccc(N2CCN(Cc3cc(F)c4c(c3)[nH]c(=O)n3cccc43)CC2)c(C)n1 [Example 131, 8-((4-(2-methyl-6-(methylcarbamoyl)pyridin-3-yl)piperazin-1-yl)methyl)-10-fluoropyrrolo[1,2-c]quinazolin-5(6H)-one]
- IC50 [1]: 111 nM
- IC50 [2]: 0.78 nM

SMILES: CNC(=O)c1ccc(N2CCN(Cc3ccc4c([nH]c(=O)c5cc(C)nn54)c3F)CC2)c(F)n1 [Example 115, 7-((4-(2-fluoro-6-(methylcarbamoyl)pyridin-3-yl)piperazin-1-yl)methyl)-6-fluoro-2-methylpyrazolo[1,5-a]quinoxalin-4(5H)-one]
- IC50 [1]: 288 nM
- IC50 (MDA-MB-436 cells): 1.98 nM
- IC50 [2]: 1.45 nM

SMILES: CCNC(=O)c1ccc(N2CCN(Cc3ccc4c5c(c(=O)[nH]c4c3)COC5)CC2)c(C)n1 [Example 7, 7-((4-(2-methyl-6-(ethylcarbamoyl)pyridin-3-yl)piperazin-1-yl)methyl)-3,5-dihydrofuro[3,4-c]quinolin-4(1H)-one]
- IC50 (MDA-MB-436 cells): 4.36 nM
- IC50 [2]: 1.9 nM

SMILES: CNC(=O)c1ccc(N2CCN(Cc3cc(C)c4c(c3)[nH]c(=O)c3ccnn34)CC2)c(C)n1 [Example 102, 7-((4-(2-methyl-6-(methylcarbamoyl)pyridin-3-yl)piperazin-1-yl)methyl)-9-methylpyrazolo[1,5-a]quinoxalin-4(5H)-one]
- IC50 [1]: 101 nM
- IC50 (MDA-MB-436 cells): 2.24 nM
- IC50 [2]: 6.91 nM

SMILES: CNC(=O)c1ccc(N2CCN(Cc3ccc4c([nH]c(=O)c5cc(Cl)nn54)c3F)CC2)c(F)n1 [Example 112, 7-((4-(2-fluoro-6-(methylcarbamoyl)pyridin-3-yl)piperazin-1-yl)methyl)-6-fluoro-2-chloropyrazolo[1,5-a]quinoxalin-4(5H)-one]
- IC50 [1]: 223 nM
- IC50 [2]: 0.57 nM

SMILES: CNC(=O)c1ccc(N2CCN(Cc3cc(F)c4c(c3)[nH]c(=O)c3c(Cl)cnn34)CC2)c(C)n1 [Example 127, 7-((4-(2-methyl-6-(methylcarbamoyl)pyridin-3-yl)piperazin-1-yl)methyl)-3-chloro-9-fluoropyrazolo[1,5-a]quinoxalin-4(5H)-one]
- IC50 [1]: 83 nM
- IC50 [2]: 0.85 nM

SMILES: CNC(=O)c1ccc(N2CCN(Cc3ccc4c(c3)[nH]c(=O)c3cc(C)nn34)CC2)c(F)n1 [Example 69, 7-((4-(2-fluoro-6-(methylcarbamoyl)pyridin-3-yl)piperazin-1-yl)methyl)-2-methylpyrazolo[1,5-a]quinoxalin-4(5H)-one]
- IC50 [1]: 49.9 nM
- IC50 (MDA-MB-436 cells): 1.08 nM
- IC50 [2]: 2.32 nM

SMILES: CNC(=O)c1ccc(N2CCN(Cc3cc(F)c4c(c3)[nH]c(=O)n3ccnc43)CC2)c(F)n1 [Example 53, 8-((4-(2-fluoro-6-(methylcarbamoyl)pyridin-3-yl)piperazin-1-yl)methyl)-10-fluoroimidazo[1,2-c]quinazolin-5(6H)-one]
- IC50 [1]: 1950 nM
- IC50 [2]: 2.34 nM

SMILES: CNC(=O)c1ccc(N2CCN(Cc3cc(F)c4c(c3)[nH]c(=O)c3c(C)cnn34)CC2)c(Cl)n1 [Example 77, 7-((4-(2-chloro-6-(methylcarbamoyl)pyridin-3-yl)piperazin-1-yl)methyl)-9-fluoro-3-methylpyrazolo[1,5-a]quinoxalin-4(5H)-one]
- IC50 [1]: 241 nM
- IC50 (MDA-MB-436 cells): 2.39 nM
- IC50 [2]: 1.51 nM

SMILES: CNC(=O)c1ccc(N2CCN(Cc3ccc4c(c3)[nH]c(=O)c3ccnn34)CC2)c(F)n1 [Example 36, 7-((4-(2-fluoro-6-(methylcarbamoyl)pyridin-3-yl)piperazin-1-yl)methyl)pyrazolo[1,5-a]quinoxalin-4(5H)-one]
- IC50 [1]: 41.4 nM
- IC50 (MDA-MB-436 cells): 1.11 nM
- IC50 [2]: 0.44 nM

SMILES: CCNC(=O)c1ccc(N2CCN(Cc3ccc4c([nH]c(=O)c5ccnn54)c3F)CC2)c(F)n1 [Example 110, 7-((4-(2-fluoro-6-(ethylcarbamoyl)pyridin-3-yl)piperazin-1-yl)methyl)-6-fluoropyrazolo[1,5-a]quinoxalin-4(5H)-one]
- IC50 [1]: 965 nM
- IC50 [2]: 1.95 nM

SMILES: CCNC(=O)c1ccc(N2CCN(Cc3ccc4c5c(c(=O)[nH]c4c3)COC5)CC2)c(Cl)n1 [Example 6, 7-((4-(2-chloro-6-(ethylcarbamoyl)pyridin-3-yl)piperazin-1-yl)methyl)-3,5-dihydrofuro[3,4-c]quinolin-4(1H)-one]
- IC50 (MDA-MB-436 cells): 17.7 nM
- IC50 [2]: 1.86 nM

SMILES: CNC(=O)c1ccc(N2CCN(Cc3ccc4c(c3)[nH]c(=O)c3cccn34)CC2)c(C)n1 [Example 24, 7-((4-(2-methyl-6-(methylcarbamoyl)pyridin-3-yl)piperazin-1-yl)methyl)pyrrolo[1,2-a]quinoxalin-4(5H)-one]
- IC50 [1]: 31.5 nM
- IC50 (MDA-MB-436 cells): 0.78 nM
- IC50 [2]: 0.83 nM

SMILES: CNC(=O)c1ccc(N2CCN(Cc3ccc4c(c3)[nH]c(=O)c3c(C)cnn34)CC2)c(Cl)n1 [Example 72, 7-((4-(2-chloro-6-(methylcarbamoyl)pyridin-3-yl)piperazin-1-yl)methyl)-3-methylpyrazolo[1,5-a]quinoxalin-4(5H)-one]
- IC50 [1]: 110 nM
- IC50 (MDA-MB-436 cells): 2.09 nM
- IC50 [2]: 1.12 nM

SMILES: CNC(=O)c1ccc(N2CCN(Cc3ccc4c(c3)[nH]c(=O)c3cc(C)nn34)CC2)c(C)n1 [Example 57, 7-((4-(2-methyl-6-(methylcarbamoyl)pyridin-3-yl)piperazin-1-yl)methyl)-2-methylpyrazolo[1,5-a]quinoxalin-4(5H)-one]
- IC50 [1]: 67.9 nM
- IC50 (MDA-MB-436 cells): 1.43 nM
- IC50 [2]: 1.77 nM

SMILES: O=C(NC1CC1)c1ccc(N2CCN(Cc3ccc4c([nH]c(=O)c5ccnn54)c3F)CC2)c(F)n1 [Example 111, 7-((4-(2-fluoro-6-(cyclopropylcarbamoyl)pyridin-3-yl)piperazin-1-yl)methyl)-6-fluoropyrazolo[1,5-a]quinoxalin-4(5H)-one]
- IC50 [1]: 455 nM
- IC50 [2]: 1.27 nM

SMILES: CNC(=O)c1ccc(N2CCN(Cc3ccc4c([nH]c(=O)c5ccnn54)c3C)CC2)c(F)n1 [Example 133, 7-((4-(2-fluoro-6-(methylcarbamoyl)pyridin-3-yl)piperazin-1-yl)methyl)-6-methylpyrazolo[1,5-a]quinoxalin-4(5H)-one]
- IC50 [1]: 222 nM
- IC50 [2]: 1.5 nM

SMILES: CNC(=O)c1ccc(N2CCN(Cc3cc(F)c4c(c3)[nH]c(=O)c3occc34)CC2)c(F)n1 [Example 108, 7-((4-(2-fluoro-6-(methylcarbamoyl)pyridin-3-yl)piperazin-1-yl)methyl)-9-fluoro-furo[2,3-c]quinolin-4(5H)-one]
- IC50 [1]: 353 nM
- IC50 [2]: 0.66 nM

SMILES: CNC(=O)c1ccc(N2CCN(Cc3cc(F)c4c(c3)[nH]c(=O)n3ccnc43)CC2)c(F)n1 [Example 120]
- IC50 [1]: 1950 nM

SMILES: CNC(=O)c1ccc(N2CCN(Cc3ccc4c(c3)[nH]c(=O)c3cnn(C)c34)CC2)c(C)n1 [Example 105, 7-((4-(2-methyl-6-(methylcarbamoyl)pyridin-3-yl)piperazin-1-yl)methyl)-1-methyl-1,5-dihydro-4H-pyrazolo[4,3-c]quinolin-4-one]
- IC50 [1]: 910 nM

SMILES: CNC(=O)c1ccc(N2CCN(Cc3ccc4c(c3)[nH]c(=O)c3cscc34)CC2)c(C)n1 [Example 83, 7-((4-(2-methyl-6-(methylcarbamoyl)pyridin-3-yl)piperazin-1-yl)methyl)thieno[3,4-c]quinolin-4(5H)-one]
- IC50 [1]: 18.3 nM
- IC50 [2]: 1.08 nM

SMILES: CNC(=O)c1ccc(N2CCN(Cc3ccc4c(c3)[nH]c(=O)n3cncc43)CC2)c(C)n1 [Example 30, 8-((4-(2-methyl-6-(methylcarbamoyl)pyridin-3-yl)piperazin-1-yl)methyl)imidazo[1,5-c]quinazolin-5(6H)-one]
- IC50 [1]: 2590 nM
- IC50 [2]: 1.54 nM

SMILES: CNC(=O)c1ccc(N2CCN(Cc3ccc4c(c3)[nH]c(=O)c3occc34)CC2)c(C)n1 [Example 104, 7-((4-(2-methyl-6-(methylcarbamoyl)pyridin-3-yl)piperazin-1-yl)methyl)furo[2,3-c]quinolin-4(5H)-one]
- IC50 [2]: 1.42 nM

SMILES: CNC(=O)c1ccc(N2CCN(Cc3ccc4c([nH]c(=O)c5ccnn54)c3C)CC2)c(C)n1 [Example 129, 7-((4-(2-methyl-6-(methylcarbamoyl)pyridin-3-yl)piperazin-1-yl)methyl)-6-methylpyrazolo[1,5-a]quinoxalin-4(5H)-one]
- IC50 [1]: 369 nM
- IC50 [2]: 1.48 nM

SMILES: CNC(=O)c1ccc(N2CCN(Cc3ccc4c(c3)[nH]c(=O)c3c(C)c(C)nn34)CC2)c(F)n1 [Example 125, 7-((4-(2-fluoro-6-(methylcarbamoyl)pyridin-3-yl)piperazin-1-yl)methyl)-2,3-dimethylpyrazolo[1,5-a]quinoxalin-4(5H)-one]
- IC50 [1]: 3.7 nM
- IC50 [2]: 1.05 nM

SMILES: CNC(=O)c1ccc(N2CCN(Cc3ccc4c(c3)[nH]c(=O)c3sccc34)CC2)c(C)n1 [Example 84, 7-((4-(2-methyl-6-(methylcarbamoyl)pyridin-3-yl)piperazin-1-yl)methyl)thieno[2,3-c]quinolin-4(5H)-one]
- IC50 [1]: 10.1 nM
- IC50 [2]: 0.77 nM

SMILES: CNC(=O)c1ccc(N2CCN(Cc3ccc4c5c(c(=O)[nH]c4c3)CCC5)CC2)c(Cl)n1 [Example 16, 7-((4-(2-chloro-6-(methylcarbamoyl)pyridin-3-yl)piperazin-1-yl)methyl)-1,2,3,5-tetrahydro-4H-cyclopenta[c]quinolin-4-one]
- IC50 (MDA-MB-436 cells): 1.71 nM
- IC50 [2]: 1.99 nM

SMILES: CNC(=O)c1ccc(N2CCN(Cc3ccc4c(c3)[nH]c(=O)c3nccn34)CC2)c(C)n1 [Example 25, 7-((4-(2-methyl-6-(methylcarbamoyl)pyridin-3-yl)piperazin-1-yl)methyl)imidazo[1,2-a]quinoxalin-4(5H)-one]
- IC50 (MDA-MB-436 cells): 44.9 nM
- IC50 [2]: 1.93 nM

SMILES: CNC(=O)c1ccc(N2CCN(Cc3ccc4c(c3)[nH]c(=O)c3ccsc34)CC2)c(C)n1 [Example 85, 7-((4-(2-methyl-6-(methylcarbamoyl)pyridin-3-yl)piperazin-1-yl)methyl)thieno[3,2-c]quinolin-4(5H)-one]
- IC50 [1]: 78 nM
- IC50 [2]: 1.52 nM

SMILES: CNC(=O)c1ccc(N2CCN(Cc3cc(F)c4c(c3)[nH]c(=O)c3cscc34)CC2)c(C)n1 [Example 86, 7-((4-(2-methyl-6-(methylcarbamoyl)pyridin-3-yl)piperazin-1-yl)methyl)-9-fluorothieno[3,4-c]quinolin-4(5H)-one]
- IC50 [1]: 13.3 nM
- IC50 [2]: 0.66 nM
